Data on 1 compound can be found in patent US20240302376A1, “METHOD FOR IDENTIFYING SUBGROUPS OF CIRCULATING TUMOR CELLS (CTCS) IN THE CTC POPULATION OF A BIOLOGICAL SAMPLE” (priority 2012, published 2024).

The subject of test [1] is Pt-(GpG) adducts in DNA of CTC and CD45-positive cells. The experiment in a line: Pt-(GpG) DNA adducts in CD45/CD15-depleted mononuclear cell fraction exposed to cisplatin ex vivo. Format: cell-based, human. To be noted: after exposure to cisplatin, NSCLC patient blood. An excerpt: Pt-(GpG) intrastrand crosslinks are the major DNA adducts induced by platinum-based anticancer drugs. […] Pt-(GpG) DNA adducts in CTCs treated with cisplatin in medium upfront to systemic therapy from patients with advanced non-small-cell lung cancer (NSCLC) was studied.
Blood was drawn before systemic treatment and the CD45/CD15-depleted fraction of mononuclear cells was exposed to cisplatin, verified for the presence of CTC by pan-cytokeratin (pCK) staining and immunoanalysed for the level of Pt-(GpG) in DNA. Pt-(GpG) adducts can be detected in CTC from NSCLC patients and assessing their kinetics constitutes a clinically feasible biomarker for response prediction and dose individualisation of platinum-based chemotherapy.
Epithelial CTCs were detected that stained positive for DAPI and pCK and negative for CD45. The ratio of pCK− positive to CD45-positive cells in the depleted fractions was in the range of […], resulting in up to three CTC per cell spot on the slides. […]
The measurement of Pt-(GpG) adducts in the nuclear DNA of short term-exposed CTC depict a characteristic time course of formation and removal. […] The degree of association was calculated between these three values of ex vivo adduct persistence in CTC from 11 patients with their therapeutic response using the Spearman's rho rank correlation coefficient. […]

Test [2] deals with Pt-(GpG) in the DNA of CTC. As to the kind of experiment: Pt-(GpG) adduct levels in CTC after cisplatin infusion versus ex vivo exposure. More on the design: species or system human. Particulars: clinical dose 50 mgm_2 (1.4 mg kg_1 body weight); blood at baseline and 2, 4 and 24 h after infusion; same patient. Here is the method:
To test whether adduct kinetics measured in tumour cells after ex vivo exposure to cisplatin mirror the formation and repair rates for Pt-(GpG) in the DNA of those cells in vivo during systemic treatment, blood samples from the same patient were analysed under both the conditions.

Take `N.N.[Cl][Pt][Cl]` [cisplatin]: the “levels of DNA platination in CD45-positive cells as compared with CTC (fold lower)” value in test [1] was roughly 10 fold. For the same compound, the “CTC adduct levels after clinical dose versus ex vivo exposure” value in test [2] is reported as “comparable to a short time ex vivo exposure with 20 mgml_1 for 2 h”.
